# Reference: PubChem BioAssay (NCI)
#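 The concentration for 50% growth inhibition is given as GI50. The concentration for full growth arrest is given as TGI.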
# Experiments:
# Experiment in all cases: NCI anticancer screen, dose series, 384-well format
# SK-MEL-5 melanoma = tested on: SK-MEL-5 melanoma
# SNB-75 CNS = tested on: SNB-75 CNS
# OVCAR-4 ovarian = tested on: OVCAR-4 ovarian
# SR leukemia = tested on: SR leukemia
# MDA-MB-435 melanoma = tested on: MDA-MB-435 melanoma
# U251 glioblastoma = tested on: U251 glioblastoma
# CAKI-1 renal = tested on: CAKI-1 renal
# LOX IMVI melanoma = tested on: LOX IMVI melanoma
# NCI/ADR-RES ovarian = tested on: NCI/ADR-RES ovarian
# HCT-15 colon = tested on: HCT-15 colon
# UACC-62 melanoma = tested on: UACC-62 melanoma
# OVCAR-3 ovarian = tested on: OVCAR-3 ovarian
# MOLT-4 leukemia = tested on: MOLT-4 leukemia
# RXF 393 renal = tested on: RXF 393 renal
# EKVX NSCLC = tested on: EKVX NSCLC
# PC-3 prostate = tested on: PC-3 prostate
# HT29 colon = tested on: HT29 colon
# SF-295 CNS = tested on: SF-295 CNS
# BT-549 breast = tested on: BT-549 breast
# A549 NSCLC = tested on: A549 NSCLC
# COLO 205 colon = tested on: COLO 205 colon
# UACC-257 melanoma = tested on: UACC-257 melanoma
# NCI-H460 NSCLC = tested on: NCI-H460 NSCLC
# HOP-62 NSCLC = tested on: HOP-62 NSCLC
# TK-10 renal = tested on: TK-10 renal
# ACHN renal = tested on: ACHN renal
compound,measurement,setting,value
Cn1ncnc1C1c2n[nH]c(=O)c3cc(F)cc(c23)NC1c1ccc(F)cc1 (stereo unspecified),GI50,SK-MEL-5 melanoma,> 100 µM
same,TGI,SK-MEL-5 melanoma,> 100 µM
same,GI50,SNB-75 CNS,5.52 µM
same,TGI,SNB-75 CNS,> 100 µM
same,GI50,OVCAR-4 ovarian,19 µM
same,TGI,OVCAR-4 ovarian,> 100 µM
same,TGI,SR leukemia,0.0215 µM
same,GI50,MDA-MB-435 melanoma,> 100 µM
same,TGI,MDA-MB-435 melanoma,> 100 µM
same,GI50,U251 glioblastoma,3.46 µM
same,TGI,U251 glioblastoma,> 100 µM
same,GI50,CAKI-1 renal,> 100 µM
same,TGI,CAKI-1 renal,> 100 µM
same,GI50,LOX IMVI melanoma,2.43 µM
same,TGI,LOX IMVI melanoma,> 100 µM
same,GI50,NCI/ADR-RES ovarian,8.17 µM
same,TGI,NCI/ADR-RES ovarian,> 100 µM
same,GI50,HCT-15 colon,32.5 µM
same,TGI,HCT-15 colon,> 100 µM
same,GI50,UACC-62 melanoma,> 100 µM
same,TGI,UACC-62 melanoma,> 100 µM
same,GI50,OVCAR-3 ovarian,82.7 µM
same,TGI,OVCAR-3 ovarian,> 100 µM
same,GI50,MOLT-4 leukemia,0.234 µM
same,TGI,MOLT-4 leukemia,1.06 µM
same,GI50,RXF 393 renal,> 100 µM
same,TGI,RXF 393 renal,> 100 µM
same,GI50,EKVX NSCLC,> 100 µM
same,TGI,EKVX NSCLC,> 100 µM
same,GI50,PC-3 prostate,> 100 µM
same,TGI,PC-3 prostate,> 100 µM
same,GI50,HT29 colon,> 100 µM
same,TGI,HT29 colon,> 100 µM
same,GI50,SF-295 CNS,0.383 µM
same,TGI,SF-295 CNS,8.07 µM
same,GI50,BT-549 breast,4.68 µM
same,TGI,BT-549 breast,> 100 µM
same,GI50,A549 NSCLC,> 100 µM
same,TGI,A549 NSCLC,> 100 µM
same,GI50,COLO 205 colon,1.85 µM
same,TGI,COLO 205 colon,> 100 µM
same,GI50,UACC-257 melanoma,> 100 µM
same,TGI,UACC-257 melanoma,> 100 µM
same,GI50,NCI-H460 NSCLC,0.0191 µM
same,TGI,NCI-H460 NSCLC,1.56 µM
same,GI50,HOP-62 NSCLC,0.278 µM
same,TGI,HOP-62 NSCLC,4.14 µM
same,GI50,TK-10 renal,> 100 µM
same,TGI,TK-10 renal,> 100 µM
same,GI50,ACHN renal,43.6 µM
same,TGI,ACHN renal,> 100 µM
